Assay results reported in ChEMBL document CHEMBL1146849, “Identification of a lead pharmacophore for the development of potent nuclear receptor modulators as anticancer and X syndrome disease therapeutic agents” (Bioorg Med Chem Lett, 2006).
Calls of active or inactive are those of the source. The calls are words filed in the database; no cut-off is given here.

Experiments:
[1] = molecular target: T1, Bile acid receptor (Homo sapiens) (UniProt Q96RI1); assay: Agonist activity at FXR in HepG2 cells by luciferase activity relative to CDCA at 10 uM; assay type: functional, cell-based
T1 sequence (whole entry): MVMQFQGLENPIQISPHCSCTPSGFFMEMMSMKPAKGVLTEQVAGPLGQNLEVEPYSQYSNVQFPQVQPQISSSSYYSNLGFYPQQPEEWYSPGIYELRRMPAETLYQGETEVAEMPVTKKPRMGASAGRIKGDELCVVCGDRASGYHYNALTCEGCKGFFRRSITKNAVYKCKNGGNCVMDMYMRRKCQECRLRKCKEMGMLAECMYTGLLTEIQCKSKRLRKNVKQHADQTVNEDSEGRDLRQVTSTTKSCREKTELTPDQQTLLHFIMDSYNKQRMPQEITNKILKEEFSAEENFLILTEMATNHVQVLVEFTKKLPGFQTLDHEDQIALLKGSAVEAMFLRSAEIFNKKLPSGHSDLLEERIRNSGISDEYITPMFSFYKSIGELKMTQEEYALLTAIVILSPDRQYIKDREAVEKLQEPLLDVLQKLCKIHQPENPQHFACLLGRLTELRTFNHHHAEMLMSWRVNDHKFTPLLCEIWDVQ

[2] = system: Androgen receptor (Homo sapiens), P10275 [T878A]; assay: Agonist activity at human androgen receptor T877A mutant relative to control; assay type: functional
Chain of Androgen receptor (Homo sapiens), P10275 [T878A] (P10275 whole entry T878A): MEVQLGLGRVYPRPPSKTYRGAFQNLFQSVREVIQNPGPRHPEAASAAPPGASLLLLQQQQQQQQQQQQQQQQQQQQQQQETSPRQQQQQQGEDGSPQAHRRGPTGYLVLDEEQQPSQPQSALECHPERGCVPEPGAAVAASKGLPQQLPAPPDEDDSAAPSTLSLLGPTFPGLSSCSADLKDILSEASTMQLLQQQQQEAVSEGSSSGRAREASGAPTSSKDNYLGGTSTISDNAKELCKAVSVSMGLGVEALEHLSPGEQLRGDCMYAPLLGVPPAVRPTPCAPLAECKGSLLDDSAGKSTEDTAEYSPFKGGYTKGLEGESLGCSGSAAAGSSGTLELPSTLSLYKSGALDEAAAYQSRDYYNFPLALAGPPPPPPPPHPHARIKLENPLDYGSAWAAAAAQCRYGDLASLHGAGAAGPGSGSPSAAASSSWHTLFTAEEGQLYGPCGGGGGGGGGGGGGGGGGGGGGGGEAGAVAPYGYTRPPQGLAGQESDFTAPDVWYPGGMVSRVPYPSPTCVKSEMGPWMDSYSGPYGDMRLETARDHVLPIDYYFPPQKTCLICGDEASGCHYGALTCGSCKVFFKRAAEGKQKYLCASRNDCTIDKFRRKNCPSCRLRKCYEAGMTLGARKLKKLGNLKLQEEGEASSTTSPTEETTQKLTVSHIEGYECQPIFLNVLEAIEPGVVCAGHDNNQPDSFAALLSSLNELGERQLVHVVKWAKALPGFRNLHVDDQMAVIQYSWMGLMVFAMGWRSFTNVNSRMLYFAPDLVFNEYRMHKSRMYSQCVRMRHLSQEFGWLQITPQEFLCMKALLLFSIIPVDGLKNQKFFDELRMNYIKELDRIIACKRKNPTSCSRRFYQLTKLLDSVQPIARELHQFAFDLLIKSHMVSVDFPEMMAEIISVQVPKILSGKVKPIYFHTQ

| Activity [1] | Activity [2] | Compound |
| --- | --- | --- |
| Active | – | Cc1ccc(C(=O)N2Cc3ccccc3C[C@H]2CO)cc1F |
| – | inactive | O=C(c1ccc(C(O)(C(F)(F)F)C(F)(F)F)cc1)N1Cc2ccccc2C[C@H]1CO |
| – | inactive | Cc1cc(C)cc(C(=O)N2Cc3ccccc3C[C@H]2CO)c1 |
